US4044137A, “2-(Phenylthiopropyl)-5-aryl-1,2,3,4-tetrahydro-γ-carbolines” (Pfizer Inc., priority 1976, dated 1977)
Structures can show the parent of a compound that is named as a salt.

System: amphetamine-induced symptoms
Assay: antagonism of amphetamine-induced symptoms (cage movement) in rats
Format: in vivo
Conditions: test compound i.p., 1 hr., d-amphetamine sulfate 5 mg./kg. i.p. given 1 hr. after compound, rated one hour after amphetamine
From the text: The tranquilizing agents of the present invention are characterized by relief of such schizophrenic manifestations in humans as hallucinations, hostility, suspiciousness, emotional or social withdrawal, anxiety, agitation and tension. Standard procedures of detecting and comparing tranquilizing activity of compounds in this series and for which there is an excellent correlation with human efficacy is the antagonism of amphetamine-induced symptoms in rats test, as taught by A. Weissman, et al., J. Pharmacol. Exp. Ther., 151, 339 (1966) and by Quinton, et al., Nature, 200, 178 (1963).
The effects of the compounds of the present invention on prominent amphetamine-induced symptoms were studied in rats by a rating scale modeled after the one reported by Quinton and Halliwell and by Weissman. Groups of five rats were placed in a covered plastic cage measuring approximately 26 × 42 × 16 cm. After a brief period of acclimation in the cage, the rats in each group were treated intraperitoneally (i.p.) with the test compound. […] On the basis of dose-response data after amphetamine it was possible to determine the effective dose of the compound necessary to antagonize or block the characteristic amphetamine behavior of cage movement for fifty percent of the rats tested (ED50). […]

SMILES | ED50 (effective dose to antagonize or block the characteristic amphetamine behavior of cage movement for fifty percent of the rats tested) [mg/kg]
Fc1ccc(SCCCN2CCc3c(c4cc(F)ccc4n3-c3ccc(F)cc3)C2)cc1 [F F F 0, 8-Fluoro-5-(p-fluorophenyl)-2-[3-(p-fluorophenylthio)propyl]-1,2,3,4-tetrahydro-γ-carboline hydrochloride] | 32
[O-][S+](CCCN1CCc2c(c3cc(F)ccc3n2-c2ccc(F)cc2)C1)c1ccc(F)cc1 (centres unmarked) [F F F 1, 8-fluoro-5-(p-fluorophenyl)-2-[3-(p-fluorophenylsulfinyl)propyl]-1,2,3,4-tetrahydro-γ-carboline hydrochloride] | 10
